{"source": "patent US10375962B2", "about": "“Heterocycle derivatives as pesticides” (BAYER CROPSCIENCE AKTIENGESELLSCHAFT, priority 2016, dated 2019)", "key": {"[1]": {"test": "log P by HPLC on a reversed-phase column (C 18), EEC Directive 79/831 Annex V.A8", "assay_type": "physicochemical", "conditions": "for chromatographic logP: reversed-phase HPLC column (C 18)", "from_the_text": "Called log P (HCOOH) in the table.\nCalled log P (neutral) in the table."}, "[2]": {"system": "L1 larvae of the Australian sheep blowfly (Lucilia cuprina)", "test": "Lucilia cuprina test", "assay_type": "in vivo", "conditions": "application rate 100 ppm; after 2 days", "experimental": "Solvent: dimethyl sulphoxide\nTo produce a suitable active compound formulation, 10 mg of active compound are mixed with 0.5 ml of dimethyl sulphoxide, and the concentrate is diluted with water to the desired concentration.\nAbout 20 L1 larvae of the Australian sheep blowfly (Lucilia cuprina) are transferred into a test vessel containing minced horsemeat and the active compound formulation of the desired concentration.\nAfter 2 days, the kill in % is determined. 100% means that all the larvae have been killed; 0% means that no larvae have been killed."}, "[3]": {"system": "larvae of the mustard beetle (Phaedon cochleariae)", "test": "Phaedon cochleariae - spray test", "assay_type": "in vivo", "conditions": "after 7 days", "experimental": "Solvent: 78.0 parts by weight of acetone • • 1.5 parts by weight of dimethylformamide\nEmulsifier: alkylaryl polyglycol ether\n(§1) To produce a suitable active compound formulation, 1 part by weight of active compound is dissolved with the stated parts by weight of solvent and made up with water containing an emulsifier concentration of 1000 ppm until the desired concentration is attained. To produce further test concentrations, the formulation is diluted with emulsifier-containing water.\nDiscs of Chinese cabbage leaves (Brassica pekinensis) are sprayed with an active compound formulation of the desired concentration and, after drying, populated with larvae of the mustard beetle (Phaedon cochleariae).\nAfter 7 days, the efficacy in % is determined. 100% means that all the beetle larvae have been killed and 0% means that none of the beetle larvae have been killed."}, "[4]": {"system": "caterpillars of the armyworm (Spodoptera frugiperda)", "test": "Spodoptera frugiperda - spray test", "assay_type": "in vivo", "conditions": "maize leaf discs, after 7 days", "experimental": "Solvent: 78.0 parts by weight of acetone • • 1.5 parts by weight of dimethylformamide Emulsifier: alkylaryl polyglycol ether […] To produce further test concentrations, the formulation is diluted with emulsifier-containing water. Leaf discs of maize (Zea mays) are sprayed with an active compound preparation of the desired concentration and, after drying, populated with caterpillars of the armyworm (Spodoptera frugiperda)."}, "[5]": {"system": "green peach aphid (Myzus persicae)", "test": "Myzus persicae - spray test (Chinese cabbage leaf discs)", "assay_type": "in vivo", "conditions": "after 5 days", "experimental": "Solvent: 78 parts by weight of acetone • • 1.5 parts by weight of dimethylformamide Emulsifier: alkylaryl polyglycol ether\nas §1\nDiscs of Chinese cabbage leaves (Brassica pekinensis) infested by all stages of the green peach aphid (Myzus persicae) are sprayed with an active compound formulation of the desired concentration.\nAfter 5 days, the efficacy in % is determined. 100% means that all the aphids have been killed and 0% means that none of the aphids have been killed."}, "[6]": {"conditions": "acidic range, pH 2.7, 0.1% aqueous formic acid/acetonitrile, 55° C."}, "[7]": {"conditions": "neutral range, pH 7.8, 0.001 molar aqueous ammonium hydrogencarbonate/acetonitrile, 55° C."}}, "note": "Where two headings read alike, the source gives them in different places."}
{"smiles": "CCS(=O)(=O)c1ccc(-c2cn(C)c3ccccc23)nc1-c1nc2cc(C(F)(F)F)ncc2n1C", "note": "[Example I-1, 2-[3-(Ethylsulphonyl)-6-(1-methyl-1H-indol-3-yl)pyridin-2-yl]-3-methyl-6-(trifluoromethyl)-3H-imidazo[4,5-c]pyridine]", "values": [{"measurement": "chromatographic logP", "setting": "[1]; acidic range, pH 2.7, 0.1% aqueous formic acid/acetonitrile, 55° C., read-out: LOGP_HCOOH (log P (HCOOH))", "result": 3.55}, {"measurement": "chromatographic logP", "setting": "[1]; neutral range, pH 7.8, 0.001 molar aqueous ammonium hydrogencarbonate/acetonitrile, 55° C., read-out: LOGP_NEUTRAL (log P (neutral))", "result": 3.45}]}
{"smiles": "CCS(=O)(=O)c1ccc(-c2cc3ccccc3n2C)nc1-c1nc2cc(C(F)(F)F)ncc2n1C", "note": "[Example I-4]", "values": [{"measurement": "LOGP_HCOOH (log P (HCOOH))", "setting": "[1]; pH 2.7", "result": 3.90}, {"measurement": "LOGP_NEUTRAL (log P (neutral))", "setting": "[1]; pH 7.8", "result": 3.83}, {"measurement": "efficacy (kill)", "setting": "[2]", "result": 90, "unit": "%"}]}
{"smiles": "CCS(=O)(=O)c1ccc(-n2ncc3ccncc32)nc1-c1nc2cc(C(F)(F)F)ncc2n1C", "note": "[Example I-7]", "values": [{"measurement": "efficacy", "setting": "[3]; application rate 100 g/ha", "result": 100, "unit": "%"}, {"measurement": "efficacy", "setting": "[3]; application rate 500 g/ha", "result": 100, "unit": "%"}]}
{"smiles": "CCS(=O)(=O)c1ccc(-n2ncc3cccc(Cl)c32)nc1-c1nc2cc(C(F)(F)F)ncc2n1C", "note": "[Example I-8]", "values": [{"measurement": "LOGP_HCOOH (log P (HCOOH))", "setting": "[1]; [6]", "result": 3.44}, {"measurement": "LOGP_NEUTRAL (log P (neutral))", "setting": "[1]; [7]", "result": 3.34}]}
{"smiles": "CCS(=O)(=O)c1ccc(-n2ncc3cc(Cl)ccc32)nc1-c1nc2cc(C(F)(F)F)ncc2n1C", "note": "[Example I-9]", "values": [{"measurement": "LOGP_HCOOH (log P (HCOOH))", "setting": "[1]; pH 2.7", "result": 4.03}, {"measurement": "LOGP_NEUTRAL (log P (neutral))", "setting": "[1]; pH 7.8", "result": 4.03}]}
{"smiles": "CCS(=O)(=O)c1ccc(-n2cc3c(Cl)cc(C(F)(F)F)cn3c2=O)nc1-c1nc2cc(C(F)(F)F)ncc2n1C", "note": "[Example I-12]", "values": [{"measurement": "efficacy", "setting": "[4]; application rate 100 g/ha", "result": 100, "unit": "%"}, {"measurement": "efficacy", "setting": "[4]; application rate 500 g/ha", "result": 100, "unit": "%"}, {"measurement": "efficacy", "setting": "[3]; application rate 100 g/ha", "result": 100, "unit": "%"}, {"measurement": "efficacy", "setting": "[3]; application rate 500 g/ha", "result": 100, "unit": "%"}, {"measurement": "LOGP_HCOOH (log P (HCOOH))", "setting": "[1]; pH 2.7", "result": 4.27}, {"measurement": "LOGP_NEUTRAL (log P (neutral))", "setting": "[1]; pH 7.8", "result": 4.18}, {"measurement": "efficacy", "setting": "[5]; application rate 100 g/ha", "result": 90, "unit": "%"}, {"measurement": "efficacy", "setting": "[5]; application rate 500 g/ha", "result": 90, "unit": "%"}]}
{"smiles": "CC[S+]([O-])c1ccc(-n2cc3cccnc3n2)nc1-c1nc2cc(C(F)(F)F)ncc2n1C", "note": "(stereo not shown) [Example I-13]", "values": [{"measurement": "LOGP_HCOOH (log P (HCOOH))", "setting": "[1]; pH 2.7", "result": 2.46}, {"measurement": "LOGP_NEUTRAL (log P (neutral))", "setting": "[1]; pH 7.8", "result": 2.45}]}
{"smiles": "CCS(=O)(=O)c1ccc(-c2ccc3cn(C)nc3c2)nc1-c1nc2cc(C(F)(F)F)ncc2n1C", "note": "[Example I-14]", "values": [{"measurement": "efficacy", "setting": "[4]; application rate 100 g/ha", "result": 100, "unit": "%"}, {"measurement": "efficacy", "setting": "[4]; application rate 500 g/ha", "result": 100, "unit": "%"}, {"measurement": "LOGP_HCOOH (log P (HCOOH))", "setting": "[1]; pH 2.7", "result": 2.71}, {"measurement": "LOGP_NEUTRAL (log P (neutral))", "setting": "[1]; pH 7.8", "result": 2.65}, {"measurement": "efficacy", "setting": "[5]; application rate 500 g/ha", "result": 70, "unit": "%"}]}
{"smiles": "CCS(=O)(=O)c1ccc(-c2cccc3nn(C)cc23)nc1-c1nc2cc(C(F)(F)F)ncc2n1C", "note": "[Example I-16]", "values": [{"measurement": "efficacy", "setting": "[3]; application rate 500 g/ha", "result": 83, "unit": "%"}, {"measurement": "LOGP_HCOOH (log P (HCOOH))", "setting": "[1]; pH 2.7", "result": 2.73}, {"measurement": "LOGP_NEUTRAL (log P (neutral))", "setting": "[1]; pH 7.8", "result": 2.67}]}
{"smiles": "CCS(=O)(=O)c1ccc(-n2ccc3nccc(Cl)c32)nc1-c1nc2cc(C(F)(F)F)ncc2n1C", "note": "[Example I-19]", "values": [{"measurement": "efficacy", "setting": "[3]; application rate 100 g/ha", "result": 100, "unit": "%"}, {"measurement": "efficacy", "setting": "[3]; application rate 500 g/ha", "result": 100, "unit": "%"}, {"measurement": "LOGP_HCOOH (log P (HCOOH))", "setting": "[1]; pH 2.7", "result": 2.51}, {"measurement": "LOGP_NEUTRAL (log P (neutral))", "setting": "[1]; pH 7.8", "result": 2.69}, {"measurement": "efficacy", "setting": "[5]; application rate 100 g/ha", "result": 90, "unit": "%"}, {"measurement": "efficacy", "setting": "[5]; application rate 500 g/ha", "result": 70, "unit": "%"}]}
{"smiles": "CCS(=O)(=O)c1ccc(-n2ccc3ncccc32)nc1-c1nc2cc(C(F)(F)F)ncc2n1C", "note": "[Example I-20]", "values": [{"measurement": "LOGP_HCOOH (log P (HCOOH))", "setting": "[1]; [6]", "result": 1.75}, {"measurement": "LOGP_NEUTRAL (log P (neutral))", "setting": "[1]; [7]", "result": 2.47}]}
{"smiles": "CCS(=O)(=O)c1ccc(-n2ccc3ccc(Cl)cc32)nc1-c1nc2cc(C(F)(F)F)ncc2n1C", "note": "[Example I-23]", "values": [{"measurement": "LOGP_HCOOH (log P (HCOOH))", "setting": "[1]; pH 2.7", "result": 4.04}, {"measurement": "LOGP_NEUTRAL (log P (neutral))", "setting": "[1]; pH 7.8", "result": 4.04}, {"measurement": "efficacy", "setting": "[5]; application rate 500 g/ha", "result": 90, "unit": "%"}]}
{"smiles": "CCS(=O)(=O)c1ccc(-n2ccc3cc(Cl)ccc32)nc1-c1nc2cc(C(F)(F)F)ncc2n1C", "note": "[Example I-25]", "values": [{"measurement": "LOGP_HCOOH (log P (HCOOH))", "setting": "[1]; [6]", "result": 4.10}, {"measurement": "LOGP_NEUTRAL (log P (neutral))", "setting": "[1]; [7]", "result": 4.09}]}
{"smiles": "CCS(=O)(=O)c1ccc(-n2ccc3ccccc32)nc1-c1nc2cc(C(F)(F)F)ncc2n1C", "note": "[Example I-26]", "values": [{"measurement": "LOGP_HCOOH (log P (HCOOH))", "setting": "[1]; [6]", "result": 3.72}, {"measurement": "LOGP_NEUTRAL (log P (neutral))", "setting": "[1]; [7]", "result": 3.65}]}
{"smiles": "CCS(=O)(=O)c1ccc(-n2ccc3cccnc32)nc1-c1nc2cc(C(F)(F)F)ncc2n1C", "note": "[Example I-29]", "values": [{"measurement": "efficacy", "setting": "[4]; application rate 100 g/ha", "result": 100, "unit": "%"}, {"measurement": "efficacy", "setting": "[4]; application rate 500 g/ha", "result": 100, "unit": "%"}, {"measurement": "LOGP_HCOOH (log P (HCOOH))", "setting": "[1]; pH 2.7", "result": 3.76}, {"measurement": "LOGP_NEUTRAL (log P (neutral))", "setting": "[1]; pH 7.8", "result": 3.74}, {"measurement": "efficacy (kill)", "setting": "[2]", "result": 100, "unit": "%"}]}
